Experimental data taken from ChEMBL document CHEMBL1201862, “PubChem BioAssay data set” (2004).
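Exposure lasted 48 hours, with cells grown in 96-well plates and compounds tested at five concentrations. The concentration for 50% growth inhibition is given as GI50.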 Activity calls are given as the source filed them. Rule as the data show it: active = GI50 up to about 1.1 µM and inactive = higher.

Key:
Assay in all cases: DTP human tumour cell line panel, 48 h
ACHN = test system: ACHN
CCRF-CEM = test system: CCRF-CEM
COLO 205 = test system: COLO 205
EKVX = test system: EKVX
HCT-15 = test system: HCT-15
Hs-578T = test system: Hs-578T
K562 = test system: K562
MCF7 = test system: MCF7
MDA-MB-435 = test system: MDA-MB-435
NCI-H23 = test system: NCI-H23
NCI/ADR-RES = test system: NCI/ADR-RES
OVCAR-3 = test system: OVCAR-3
SK-MEL-2 = test system: SK-MEL-2
SW-620 = test system: SW-620
UACC-62 = test system: UACC-62
UO-31 = test system: UO-31
CAKI-1 = test system: CAKI-1
HCC 2998 = test system: HCC 2998
HL-60 = test system: HL-60
RXF 393 = test system: RXF 393

SMILES | GI50 (ACHN) | GI50 (CCRF-CEM) | GI50 (COLO 205) | GI50 (EKVX) | GI50 (HCT-15) | GI50 (Hs-578T) | GI50 (K562) | GI50 (MCF7) | GI50 (MDA-MB-435) | GI50 (NCI-H23) | GI50 (NCI/ADR-RES) | GI50 (OVCAR-3) | GI50 (SK-MEL-2) | GI50 (SW-620) | GI50 (UACC-62) | GI50 (UO-31) | GI50 (CAKI-1) | GI50 (HCC 2998) | GI50 (HL-60) | GI50 (RXF 393)
CCOC(=O)Cc1c(C)c2ccc(OC(C)=O)c(OC(C)=O)c2oc1=O | 33.8 µM (inactive) | 4.09 µM (inactive) | 40 µM (inactive) | 23.1 µM (inactive) | 18.7 µM | 32.4 µM (inactive) | 28.8 µM (inactive) | 24.6 µM (inactive) | 28.1 µM (inactive) | 22.4 µM (inactive) | 22 µM (inactive) | 20.1 µM (inactive) | 49.5 µM (inactive) | 20.7 µM (inactive) | 32.7 µM (inactive) | 13.9 µM (inactive) |  |  |  | 
N#CC1C(=O)NC2=C(CCOc3c2ccc2ccccc32)C1c1ccc(F)cc1 (stereo unspecified) | 13.3 µM (inactive) | 28.4 µM (inactive) | 61 µM (inactive) | 36 µM (inactive) | 38.5 µM | 16.2 µM (inactive) | > 100 µM (inactive) | 36.7 µM (inactive) | 40.9 µM (inactive) | 23.4 µM (inactive) | 14.9 µM (inactive) | 21.1 µM (inactive) | 29.8 µM (inactive) | 31 µM (inactive) |  | 12.1 µM (inactive) | 31.5 µM (inactive) | 23.9 µM (inactive) | > 100 µM (inactive) | 15 µM (inactive)
Oc1c(C2=NNC(c3ccc(Cl)cc3Cl)C2)ccc2ccccc12 (stereo unspecified) | 38.5 µM (inactive) | 5.26 µM (inactive) | 32 µM (inactive) |  | 34.9 µM | 35.6 µM (inactive) | 23.1 µM (inactive) | 30.2 µM (inactive) | 22.8 µM (inactive) | 68.1 µM (inactive) | 22 µM (inactive) | 20.1 µM (inactive) | 35.8 µM (inactive) | 35.9 µM (inactive) | 40.6 µM (inactive) | 54.3 µM (inactive) | 66.5 µM (inactive) | 34.5 µM (inactive) |  | 37.9 µM (inactive)
C=C(C)C(=O)O[C@H]1CC2=CC(CC(C)=C[C@H]3OC(=O)C(=C)C13)OC2=O (stereo partly specified) | 13.2 µM (inactive) | 4.74 µM (inactive) | 14.5 µM (inactive) | 20.6 µM (inactive) | 10.8 µM | 99.1 µM (inactive) | 7.74 µM (inactive) | 13.1 µM (inactive) | 29.3 µM (inactive) | 39.3 µM (inactive) | 38.3 µM (inactive) | 24.7 µM (inactive) | 22.1 µM (inactive) | 11.8 µM (inactive) | 17.4 µM (inactive) | > 10 µM (inactive) | 17.2 µM (inactive) | 35 µM (inactive) | 3.65 µM (inactive) | 
COC(=O)[C@]12C3=C(O)C(=O)C[C@H]1OC[C@H]2C=CC3 | > 100 µM (inactive) |  | > 100 µM (inactive) | > 100 µM (inactive) | > 100 µM | > 100 µM (inactive) | 64 µM (inactive) | > 100 µM (inactive) | > 100 µM (inactive) | > 100 µM (inactive) | > 100 µM (inactive) | > 100 µM (inactive) | > 100 µM (inactive) | 29.2 µM (inactive) | > 100 µM (inactive) | > 100 µM (inactive) | > 100 µM (inactive) | > 100 µM (inactive) |  | > 100 µM (inactive)
CC(C)(C)c1ccc(O)c(CN(Cc2cc(C(C)(C)C)ccc2O)C2CCCCC2)c1 | 20 µM (inactive) | 27.5 µM (inactive) | 2.2 µM (inactive) | 17.5 µM (inactive) | 20.7 µM | 22.6 µM (inactive) | 6.46 µM (inactive) | 17.4 µM (inactive) | 14.5 µM (inactive) | 20.4 µM (inactive) | 20.3 µM (inactive) | 18.2 µM (inactive) | 18.5 µM (inactive) | 18.3 µM (inactive) | 15.7 µM (inactive) | 23.2 µM (inactive) | 26.2 µM (inactive) | 2.01 µM (inactive) |  | 17.4 µM (inactive)
COc1ccc2nc3cc(Cl)ccc3c(NCCNCCCNC(=O)c3cc(-c4ccccc4)nc4ccccc34)c2c1 | > 100 µM (inactive) | > 100 µM (inactive) | > 100 µM (inactive) | > 100 µM (inactive) | > 100 µM | > 100 µM (inactive) | 70.8 µM (inactive) | > 100 µM (inactive) | 30.1 µM (inactive) | > 100 µM (inactive) | > 100 µM (inactive) | 54.7 µM (inactive) |  | > 100 µM (inactive) | > 100 µM (inactive) | > 100 µM (inactive) | > 100 µM (inactive) | > 100 µM (inactive) | 31.3 µM (inactive) | > 100 µM (inactive)
C/C(=C\Cc1ccc(F)cc1)CCCCCC/C(C)=C/Cc1ccc(F)cc1 | 12.2 µM (inactive) | 8.28 µM (inactive) | 16.4 µM (inactive) | 14.9 µM (inactive) | 16.8 µM | 30.8 µM (inactive) | 5.3 µM (inactive) | 19.3 µM (inactive) | 16.5 µM (inactive) | 10.8 µM (inactive) | 11.9 µM (inactive) | 22.9 µM (inactive) | 16.9 µM (inactive) | 17.9 µM (inactive) | 16.6 µM (inactive) | 10.7 µM (inactive) | 9.89 µM (inactive) |  |  | 20.7 µM (inactive)
CCC1OC(=O)CC(O)C(C)C(OC2OC(C)C(O)C(N(C)C)C2O)C(CC=O)CC(C)C(=O)/C=C/C2(C)OC2C1C (stereo unspecified) | 25.8 µM (inactive) | 17.2 µM (inactive) | 19.6 µM (inactive) | 40.1 µM (inactive) | 32.1 µM | 27.1 µM (inactive) | 12 µM (inactive) | 21.5 µM (inactive) | 27.7 µM (inactive) | 26.4 µM (inactive) |  | 23.3 µM (inactive) | 48.3 µM (inactive) | 20 µM (inactive) | 19.8 µM (inactive) |  | 23.1 µM (inactive) | 15.9 µM (inactive) | 23.6 µM (inactive) | 
CNC(=S)NNc1ncnc2c1ncn2-c1ccc(C)cc1 |  | > 100 µM (inactive) | > 100 µM (inactive) | > 100 µM (inactive) | > 100 µM | > 100 µM (inactive) | > 100 µM (inactive) |  | > 100 µM (inactive) | > 100 µM (inactive) | > 100 µM (inactive) | > 100 µM (inactive) | > 100 µM (inactive) | > 100 µM (inactive) | > 100 µM (inactive) | > 100 µM (inactive) | > 100 µM (inactive) |  | > 100 µM (inactive) | > 100 µM (inactive)
COc1cc(CC2CC(c3ccc4c(c3)OCO4)OC2=O)cc(OC)c1OC (stereo unspecified) | > 100 µM (inactive) | > 100 µM (inactive) | > 100 µM (inactive) | 65.9 µM (inactive) | > 100 µM | > 100 µM (inactive) | 71.8 µM (inactive) | > 100 µM (inactive) | > 100 µM (inactive) | > 100 µM (inactive) | 83.2 µM (inactive) | 49.5 µM (inactive) |  | > 100 µM (inactive) | 52.5 µM (inactive) | 19.4 µM (inactive) | 59.2 µM (inactive) | > 100 µM (inactive) | > 100 µM (inactive) | > 100 µM (inactive)
c1cn(C23C4C5C6C4C2C6C53)cn1 (stereo unspecified) | > 100 µM (inactive) | > 100 µM (inactive) | > 100 µM (inactive) | > 100 µM (inactive) | > 100 µM | > 100 µM (inactive) | > 100 µM (inactive) | > 100 µM (inactive) | > 100 µM (inactive) | > 100 µM (inactive) | > 100 µM (inactive) |  | > 100 µM (inactive) | > 100 µM (inactive) |  |  |  | > 100 µM (inactive) | > 100 µM (inactive) | 
Cc1nc(N)nc2ccccc12 | > 100 µM (inactive) | > 100 µM (inactive) |  | 44.8 µM (inactive) | > 100 µM | > 100 µM (inactive) | > 100 µM (inactive) | > 100 µM (inactive) | > 100 µM (inactive) | > 100 µM (inactive) | > 100 µM (inactive) | > 100 µM (inactive) | > 100 µM (inactive) | > 100 µM (inactive) | > 100 µM (inactive) | > 100 µM (inactive) | > 100 µM (inactive) |  | > 100 µM (inactive) | > 100 µM (inactive)
Nc1nc(Cl)cc(NCC2(CO)CC(c3ccccc3)C2)n1 (stereo unspecified) | 16.1 µM (inactive) | 27 µM (inactive) | 29.1 µM (inactive) | 5.41 µM (inactive) | 53 µM | 19.2 µM (inactive) | 9.57 µM (inactive) | 22.9 µM (inactive) | 29.9 µM (inactive) | 3.57 µM (inactive) | 13.8 µM (inactive) | > 100 µM (inactive) | 62.4 µM (inactive) | > 100 µM (inactive) | 32.4 µM (inactive) | 16.6 µM (inactive) | > 100 µM (inactive) |  | 17.6 µM (inactive) | 58.9 µM (inactive)
Cc1c(NC(=S)N/N=C\C(=N/NC(=S)Nc2c(C)n(C)n(-c3ccccc3)c2=O)c2ccccc2)c(=O)n(-c2ccccc2)n1C | > 100 µM (inactive) |  | > 100 µM (inactive) | > 100 µM (inactive) | > 100 µM | > 100 µM (inactive) |  |  | > 100 µM (inactive) | > 100 µM (inactive) | > 100 µM (inactive) | > 100 µM (inactive) | > 100 µM (inactive) | > 100 µM (inactive) | > 100 µM (inactive) | > 100 µM (inactive) | > 100 µM (inactive) | > 100 µM (inactive) |  | > 100 µM (inactive)
O=[N+]([O-])c1ccc(Cl)cc1N/N=C/c1cccc2cccnc12 | > 100 µM (inactive) | 34.8 µM (inactive) | > 100 µM (inactive) | > 100 µM (inactive) | > 100 µM | 30.8 µM (inactive) | 89.9 µM (inactive) | > 100 µM (inactive) | > 100 µM (inactive) | > 100 µM (inactive) | > 100 µM (inactive) | > 100 µM (inactive) |  | 96.6 µM (inactive) | > 100 µM (inactive) | 33.1 µM (inactive) | > 100 µM (inactive) | > 100 µM (inactive) | > 100 µM (inactive) | > 100 µM (inactive)
